# In patent US4889800A (priority 1987, dated 1989):
# “And” between values parts separate entries of the source, which are not always exact repeats. Identical values can stand only once. “Also recorded” adds a separate entry of the source. Where no end group is shown, it is not given here.
# Tested on: guinea pigs immunized with mycobacterial cell sonicates
# Conditions: guinea pig, in vivo
sequence,measurement,value
"CAKVNIKPLQDKIC (cysteine pairing not given here) [Polypeptide (diCys Terminated), residues 1-12 of the BCG-a protein with Cys at both termini]",DCH Reaction To 250 Micrograms Of Polypeptide (positive DCH reactions/total trials),7/7 and 4/4 and 0/4 and 0/3 and 2/4 and 5/5 and 0/5
same,DCH reaction (in words),most pronounced DCH reactions; also recorded: developed a DCH reaction
same,delayed cutaneous hypersensitivity reaction (in words),more pronounced delayed cutaneous hypersensitivity reaction
